Data from patent US20250082687A1, “COMPOSITION FOR IMPROVING MEMORY OR COGNITIVE ABILITY, OR PREVENTING OR TREATING BRAIN NEUROLOGICAL DISEASE, COMPRISING PORCINE BRAIN ENZYME HYDROLYSATE” (UNIMED PHARMACEUTICALS INC., priority 2022, published 2025).
Where a SMILES comes first, the peptide text is derived from it.

Experiments:
[1] = Cytotoxicity of peptides (MTT cell viability); format: cell-based, human; settings: human, SH-SY5Y cells, all tested concentrations (0.4˜40 ug/ml)
Procedure: (§1) SH-SY5Y cells, a human neuronal cell line, were obtained from the Korean Cell Line Bank (Cat No. 22266) and were cultured in Roswell Park Memorial Institute (RPMI) 1640 Medium (RPMI 1640, Cytiba) medium containing 10% fetal bovine serum (FBS, Cytiba) and 100 IU/ml penicillin and 100 μg/ml streptomycin in a 5% CO2, 37° C. incubator.
(§2) The human neuronal cell line SH-SY5Y was cultured and various concentrations of porcine brain enzyme hydrolysate-derived peptides were added to determine cell viability by MTT (methylthiazol tetrazolium bromide, Sigma Aldrich). Cells were seeded in appropriate amounts (1×10^5/well) in each well of a 24 well plate (BD, Falcon), treated with each concentration, and cell viability was determined after 48 hours of incubation in a 37° C. incubator. After 4 hours of reaction with MTT solution, the insoluble formazan crystals were dissolved by adding 400 μl of DMSO and the absorbance was measured with an ELISA reader (TECAN, Infinite M200 pro) at a wavelength of 570 nm.

SH-SY5Y cells = assay: Cytotoxicity of peptides (MTT cell viability); format: cell-based, human; settings: 40 ug/mL (w/v), 48 hours
Procedure: as §1, §2

Row | Structure (SMILES) | viability at 48 h [1] | cell viability (SH-SY5Y cells)
1 | CC[C@H](C)[C@H](NC(=O)[C@H](CO)NC(=O)[C@@H]1CCCN1)C(=O)N[C@@H](CO)C(=O)O [brPEP-1, PSIS] (H-PSIS-OH) | > 90% | 93.05%±2.23%
2 | C[C@H](NC(=O)[C@@H]1CCCN1C(=O)CN)C(=O)NCC(=O)N1CCC[C@H]1C(=O)N[C@@H](CCC(N)=O)C(=O)NCC(=O)N1CCC[C@H]1C(=O)N[C@@H](CCCNC(=N)N)C(=O)O [brPEP-2, GPAGPQGPR] | > 90% | 108.47%±5.20%
